For experiment [1], the target named is T1, Human PDGFRα, cytoplasmic domain (GST-PDGFRα) (Homo sapiens, UniProt P16234).
T1 construct: made in house
As to the kind of experiment: Human PDGFRα biochemical inhibition assay (off-chip Mobility Shift Assay).

The target of experiment [2] is T2, Human PDGFRβ, cytoplasmic domain (GST-PDGFRβ) (Homo sapiens, UniProt P09619).
T2 construct: made in house
As to the kind of experiment: Human PDGFRβ biochemical inhibition assay (off-chip Mobility Shift Assay). A digest of the protocol:
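GST-tagged cytoplasmic domain (aa 557-1106) from baculovirus was incubated 1 h at room temperature with compound, CSKtide, ATP at Km and Mg²⁺ in HEPES buffer, pH 7.5. Phosphorylated and unphosphorylated peptide were separated by off-chip mobility shift, and the product ratio P/(P+S) gave percent inhibition.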

T1 sequence (P16234 550-1089 T674I): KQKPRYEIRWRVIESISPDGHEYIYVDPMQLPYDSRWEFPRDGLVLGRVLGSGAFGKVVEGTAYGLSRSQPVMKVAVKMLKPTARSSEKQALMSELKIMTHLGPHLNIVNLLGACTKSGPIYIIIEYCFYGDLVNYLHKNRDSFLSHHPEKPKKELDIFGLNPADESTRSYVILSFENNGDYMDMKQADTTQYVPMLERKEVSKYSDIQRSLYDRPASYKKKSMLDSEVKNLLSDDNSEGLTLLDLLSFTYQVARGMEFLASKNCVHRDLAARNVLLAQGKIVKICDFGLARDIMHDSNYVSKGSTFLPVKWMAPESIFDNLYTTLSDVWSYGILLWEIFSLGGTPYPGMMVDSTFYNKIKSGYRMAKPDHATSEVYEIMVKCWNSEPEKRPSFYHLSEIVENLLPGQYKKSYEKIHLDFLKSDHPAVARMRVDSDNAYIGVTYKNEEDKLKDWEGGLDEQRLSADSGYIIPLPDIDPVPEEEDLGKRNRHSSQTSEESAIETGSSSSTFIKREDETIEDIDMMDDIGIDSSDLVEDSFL
T2 sequence (P09619 with tags, fused parts or gaps): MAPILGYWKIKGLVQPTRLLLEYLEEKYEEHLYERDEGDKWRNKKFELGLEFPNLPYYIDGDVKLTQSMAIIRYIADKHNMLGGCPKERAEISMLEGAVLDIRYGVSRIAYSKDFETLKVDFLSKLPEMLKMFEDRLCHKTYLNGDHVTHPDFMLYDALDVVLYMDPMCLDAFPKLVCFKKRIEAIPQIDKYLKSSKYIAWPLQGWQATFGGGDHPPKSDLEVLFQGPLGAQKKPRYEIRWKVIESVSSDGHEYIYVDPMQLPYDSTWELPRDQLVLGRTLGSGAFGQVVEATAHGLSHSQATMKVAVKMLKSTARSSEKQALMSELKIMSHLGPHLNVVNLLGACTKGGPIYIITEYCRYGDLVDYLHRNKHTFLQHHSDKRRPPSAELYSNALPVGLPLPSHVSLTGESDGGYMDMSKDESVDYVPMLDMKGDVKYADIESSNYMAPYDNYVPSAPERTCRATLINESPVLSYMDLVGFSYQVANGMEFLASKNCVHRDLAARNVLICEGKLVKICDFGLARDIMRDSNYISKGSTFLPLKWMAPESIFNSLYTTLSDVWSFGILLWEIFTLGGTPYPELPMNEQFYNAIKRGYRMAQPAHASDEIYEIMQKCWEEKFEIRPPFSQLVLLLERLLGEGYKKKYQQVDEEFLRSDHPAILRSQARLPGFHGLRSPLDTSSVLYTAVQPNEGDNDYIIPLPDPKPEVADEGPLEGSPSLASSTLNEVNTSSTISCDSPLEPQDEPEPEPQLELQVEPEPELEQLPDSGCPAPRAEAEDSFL

A word on the IC50: it is the concentration at which inhibition is half-maximal. On to `CSc1ccc(C(=O)Nc2cccc([C@H](C)Nc3cnc4cnn(C)c4n3)c2)cc1C` [Compound 222, (S)-3-methyl-N-(3-(1-((1-methyl-1H-pyrazolo[3,4-b]pyrazin-6-yl)amino)ethyl)phenyl)-4-(methylthio)benzamide], for which the concentration for half-maximal inhibition (IC50) in experiment [1] and in experiment [2] was less than 300 nM each time.

In the case of `CSc1ncc(C(=O)Nc2cccc([C@H](C)Nc3cnc4cnn(C)c4n3)c2)cc1C` [Compound 223, (S)-5-methyl-N-(3-(1-((1-methyl-1H-pyrazolo[3,4-b]pyrazin-6-yl)amino)ethyl)phenyl)-6-(methylthio)nicotinamide], the IC50 in experiment [1] and in experiment [2] was less than 300 nM in each case.

Take `CSc1cccc(C(=O)Nc2cccc([C@H](C)Nc3cnc4cnn(C)c4n3)c2)c1` [Compound 224, (S)-N-(3-(1-((1-methyl-1H-pyrazolo[3,4-b]pyrazin-6-yl)amino)ethyl)phenyl)-3-(methylthio)benzamide]: the IC50 in experiment [1] and in experiment [2] was less than 300 nM each time.

`C[C@H](Nc1cnc2cnn(C)c2n1)c1cccc(NC(=O)c2cccc(S(C)(=O)=O)c2)c1` [Compound 226, (S)-N-(3-(1-((1-methyl-1H-pyrazolo[3,4-b]pyrazin-6-yl)amino)ethyl)phenyl)-3-(methylsulfonyl)benzamide]: the IC50 in experiment [1] and in experiment [2] was less than 300 nM throughout.

For the compound `C[C@H](Nc1cnc2cnn(C)c2n1)c1cccc(NC(=O)c2cncc(S(C)(=O)=O)c2)c1` [Compound 227, (S)-N-(3-(1-((1-methyl-1H-pyrazolo[3,4-b]pyrazin-6-yl)amino)ethyl)phenyl)-5-(methylsulfonyl)nicotinamide], the IC50 in experiment [1] and in experiment [2] was less than 300 nM in each case.

In the case of `Cc1cc(C(=O)Nc2ccc(F)c([C@H](C)Nc3cnc4cnn(C)c4n3)c2)ccc1CN1CCN(C)CC1` [Compound 228, (S)-N-(4-fluoro-3-(1-((1-methyl-1H-pyrazolo[3,4-b]pyrazin-6-yl)amino)ethyl)phenyl)-3-methyl-4-((4-methylpiperazin-1-yl)methyl)benzamide], the IC50 in experiment [1] and in experiment [2] was less than 300 nM in each case.

Consider `Cc1cc(C(=O)Nc2cccc([C@H](C)Nc3cnc4cnn(C)c4n3)c2)cnc1OCC(C)C` [Compound 229, (S)-6-isobutoxy-5-methyl-N-(3-(1-((1-methyl-1H-pyrazolo[3,4-b]pyrazin-6-yl)amino)ethyl)phenyl)nicotinamide], for which the IC50 in experiment [1] and in experiment [2] was less than 300 nM each time.

For `CCOCc1cncc(C(=O)Nc2cccc([C@H](C)Nc3cnc4cnn(C)c4n3)c2)c1` [Compound 230, (S)-5-(ethoxymethyl)-N-(3-(1-((1-methyl-1H-pyrazolo[3,4-b]pyrazin-6-yl)amino)ethyl)phenyl)nicotinamide], the IC50 in experiment [1] and in experiment [2] was less than 300 nM each time.

On to `Cc1cc(C(=O)Nc2cccc([C@H](C)Nc3cnc4cnn(C)c4n3)c2)cnc1C(C)C` [Compound 231, (S)-6-isopropyl-5-methyl-N-(3-(1-((1-methyl-1H-pyrazolo[3,4-6]pyrazin-6-yl)amino)ethyl)phenyl)nicotinamide], for which the IC50 in experiment [1] and in experiment [2] was less than 300 nM in each case.

On to `Cc1cc(C(=O)Nc2ccc(F)c([C@H](C)Nc3cnc4cnn(C)c4n3)c2)cnc1NC(C)C` [Compound 232, (S)-N-(4-fluoro-3-(1-((1-methyl-1H-pyrazolo[3,4-b]pyrazin-6-yl)amino)ethyl)phenyl)-6-(isopropylamino)-5-methylnicotinamide], for which the IC50 in experiment [1] and in experiment [2] was less than 300 nM each time.

Take `CCc1ncc(C(=O)Nc2cccc([C@H](C)Nc3cnc4cnn(C)c4n3)c2)cc1C` [Compound 233, (S)-6-ethyl-5-methyl-N-(3-(1-((1-methyl-1H-pyrazolo[3,4-b]pyrazin-6-yl)amino)ethyl)phenyl)nicotinamide]: the IC50 in experiment [1] and in experiment [2] was less than 300 nM throughout.

Turning to `Cc1ccc(C(=O)Nc2cccc([C@H](C)Nc3cnc4cnn(C)c4n3)c2)cc1C` [Compound 234, (S)-3,4-dimethyl-N-(3-(1-((1-methyl-1H-pyrazolo[3,4-b]pyrazin-6-yl)amino)ethyl)phenyl)benzamide], the IC50 in experiment [1] and in experiment [2] was less than 300 nM throughout.

Take `CSc1cc(C(=O)Nc2cccc([C@H](C)Nc3cnc4cnn(C)c4n3)c2)ccc1Cl` [Compound 236, (S)-4-chloro-N-(3-(1-((1-methyl-1H-pyrazolo[3,4-b]pyrazin-6-yl)amino)ethyl)phenyl)-3-(methylthio)benzamide]: the IC50 in experiment [1] and in experiment [2] was less than 300 nM each time.

As for `Cc1cc(C(=O)Nc2cccc([C@H](C)Nc3cnc4cnn(C)c4n3)c2)ccc1CN1CCSCC1` [Compound 237, (S)-3-methyl-N-(3-(1-((1-methyl-1H-pyrazolo[3,4-b]pyrazin-6-yl)amino)ethyl)phenyl)-4-(thiomorpholinomethyl) benzamide], the IC50 in experiment [1] and in experiment [2] was less than 300 nM each time.

As to `CSc1cc(C(=O)Nc2cccc([C@H](C)Nc3cnc4cnn(C)c4n3)c2)ccc1CN1CCN(C)CC1` [Compound 238, (S)-N-(3-(1-((1-methyl-1H-pyrazolo[3,4-b]pyrazin-6-yl)amino)ethyl)phenyl)-4-((4-methylpiperazin-1-yl)methyl)-3-(methylthio)benzamide], the IC50 in experiment [1] and in experiment [2] was less than 300 nM in each case.

For the compound `Cc1cc(C(=O)Nc2cccc([C@H](C)Nc3cnc4cnn(C)c4n3)c2)cnc1CN1CCOCC1` [Compound 239, (S)-5-methyl-N-(3-(1-((1-methyl-1H-pyrazolo[3,4-b]pyrazin-6-yl)amino)ethyl)phenyl)-6-(morpholinomethyl) nicotinamide], the IC50 in experiment [1] and in experiment [2] was less than 300 nM in each case.

With `Cc1cc(C(=O)Nc2cccc([C@H](C)Nc3cnc4cnn(C)c4n3)c2)ccc1O` [Compound 240, (S)-4-hydroxy-3-methyl-N-(3-(1-((1-methylH-pyrazolo[3,4-b]pyrazin-6-yl)amino)ethyl)phenyl)benzamide], the IC50 in experiment [1] and in experiment [2] was less than 300 nM each time.

With `C[C@H](Nc1cnc2cnn(C)c2n1)c1cccc(NC(=O)c2cncc(O)c2)c1` [Compound 241, (S)-5-hydroxy-N-(3-(1-((1-methyl-1H-pyrazolo[3,4-b]pyrazin-6-yl)amino)ethyl)phenyl)nicotinamide], the IC50 is less than 300 nM in experiment [1] and 300 to 1000 nM in experiment [2].

Turning to `CCOc1cncc(C(=O)Nc2cccc([C@H](C)Nc3cnc4cnn(C)c4n3)c2)c1` [Compound 242, (S)-5-ethoxy-N-(3-(1-((1-methyl-1H-pyrazolo[3,4-b]pyrazin-6-yl)amino)ethyl)phenyl)nicotinamide], the IC50 in experiment [1] and in experiment [2] was less than 300 nM each time.

For `Cc1cc(C(=O)Nc2cccc([C@H](C)Nc3cnc4cnn(C)c4n3)c2)cnc1CN1CCN(C)CC1` [Compound 243, (S)-5-methyl-N-(3-(1-((1-methyl-1H-pyrazolo[3,4-b]pyrazin-6-yl)amino)ethyl)phenyl)-6-((4-methylpiperazin-1-yl)methyl)nicotinamide], the IC50 in experiment [1] and in experiment [2] was less than 300 nM each time.

In the case of `Cc1cc(C(=O)Nc2cccc([C@H](C)Nc3cnc4cnn(C)c4n3)c2)cnc1CN1CCSCC1` [Compound 244, (S)-5-methyl-N-(3-(1-((1-methyl-1H-pyrazolo[3,4-b]pyrazin-6-yl)amino)ethyl)phenyl)-6-(thiomorpholinomethyl) nicotinamide], the IC50 in experiment [1] and in experiment [2] was less than 300 nM in each case.

Turning to `C=Cc1ncc(C(=O)Nc2cccc([C@H](C)Nc3cnc4cnn(C)c4n3)c2)cc1C` [Compound 245, (S)-5-methyl-N-(3-(1-((1-methyl-1H-pyrazolo[3,4-b]pyrazin-6-yl)amino)ethyl)phenyl)-6-vinylnicotinamide], the IC50 in experiment [1] and in experiment [2] was less than 300 nM in each case.

Turning to `C=Cc1ccc(C(=O)Nc2cccc([C@H](C)Nc3cnc4cnn(C)c4n3)c2)cc1C` [Compound 246, (S)-3-methyl-N-(3-(1-((1-methyl-1H-pyrazolo[3,4-b]pyrazin-6-yl)amino)ethyl)phenyl)-4-vinylbenzamide], the IC50 in experiment [1] and in experiment [2] was less than 300 nM each time.

As for `COc1ncc(C(=O)Nc2cccc([C@H](C)Nc3cnc4cnn(C)c4n3)c2)cc1C(F)(F)F` [Compound 247, (S)-6-methoxy-N-(3-(1-((1-methyl-1-pyrazolo[3,4-b]pyrazin-6-yl)amino)ethyl)phenyl)-5-(trifluoromethyl) nicotinamide], the IC50 in experiment [1] and in experiment [2] was less than 300 nM in each case.

For `Cc1cc(C(=O)Nc2cccc([C@H](C)Nc3cnc4cnn(C)c4n3)c2)cnc1OC(C)C` [Compound 248, (S)-6-isopropoxy-5-methyl-N-(3-(1-((1-methyl-1H-pyrazolo[3,4-b]pyrazin-6-yl)amino)ethyl)phenyl) nicotinamide], the IC50 in experiment [1] and in experiment [2] was less than 300 nM each time.

Consider `COc1cc(C(=O)Nc2cccc([C@H](C)Nc3cnc4cnn(C)c4n3)c2)cnc1Cl` [Compound 249, (S)-6-chloro-5-methoxy-N-(3-(1-((1-methyl-1H-pyrazolo[3,4-b]pyrazin-6-yl)amino)ethyl)phenyl)nicotinamide], for which the IC50 in experiment [1] and in experiment [2] was less than 300 nM in each case.

With `Cc1ncc(C(=O)Nc2cccc([C@H](C)Nc3cnc4cnn(C)c4n3)c2)cc1F` [Compound 250, (S)-5-fluoro-6-methyl-N-(3-(1-((1-methyl-1H-pyrazolo[3,4-b]pyrazin-6-yl)amino)ethyl)phenyl)nicotinamide], the IC50 in experiment [1] and in experiment [2] was less than 300 nM throughout.

With `CCc1ccc(C(=O)Nc2cccc([C@H](C)Nc3cnc4cnn(C)c4n3)c2)cc1C` [Compound 251, (S)-4-ethyl-3-methyl-N-(3-(1-((1-methyl-1H-pyrazolo[3,4-b]pyrazin-6-yl)amino)ethyl)phenyl)benzamide], the IC50 in experiment [1] and in experiment [2] was less than 300 nM in each case.

Values taken from patent US20230102554A1 (GB002, INC., priority 2019, published 2023).
